Reference: the supplement of paper PMC10307832

Key:
Assay in all cases: relative viability (nuclei count vs DMSO), 5 days (fraction); higher = more cells survive
[1] = compound: CC1CC(=O)N(C2=CN=C(N=C2N1C3CCCC3)NC4=C(C=C(C=C4)C(=O)NC5CCN(CC5)C)OC)C [NPK76-II-72-1] + C[C@@H](Oc1cc(-c2cnn(C3CCNCC3)c2)cnc1N)c1c(Cl)ccc(F)c1Cl [Crizotinib] (partner 1 µM)
Procedure, shortened: (§1)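 Lung cancer cell lines in 1536-well plates were dosed by pin tool the day after seeding, either with one drug alone or with a fixed anchor-drug dose plus five library-drug doses (not always all listed) in √10 steps. After 5 days, cells were fixed and their nuclei stained in one step (final 0.05% Triton X-100, 1% formaldehyde, 1 ug/ml Hoechst), then counted on 4× images. Relative viability is the nuclei count in treated wells divided by that in vehicle wells. Values are medians of duplicate plates.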

[2] = compound: CC1CC(=O)N(C2=CN=C(N=C2N1C3CCCC3)NC4=C(C=C(C=C4)C(=O)NC5CCN(CC5)C)OC)C [NPK76-II-72-1] + C[C@]1(O)C[C@@H](c2nc(-c3ccc4ccc(-c5ccccc5)nc4c3)c3c(N)nccn32)C1 [Linsitinib] (partner 1 µM)
Procedure, shortened: as §1

[3] = compound: CC[C@@H]1C(=O)N(C)c2cnc(Nc3ccc(C(=O)NC4CCN(C)CC4)cc3OC)nc2N1C1CCCC1 [BI-2536] + CS(=O)(=O)N1CCN(Cc2cc3nc(-c4cccc5[nH]ncc45)nc(N4CCOCC4)c3s2)CC1 [Pictilisib] (partner 1 µM)
Procedure, shortened: as §1

[4] = compound: CC1CC(=O)N(C2=CN=C(N=C2N1C3CCCC3)NC4=C(C=C(C=C4)C(=O)NC5CCN(CC5)C)OC)C [NPK76-II-72-1] + COc1cc2c(Oc3ccc(NC(=O)C4(C(=O)Nc5ccc(F)cc5)CC4)cc3F)ccnc2cc1OCCCN1CCOCC1 [Foretinib] (partner 0.25 µM)
Procedure, shortened: as §1

Cell Line | relative viability ([1]; first compound 0.01 µM) | relative viability ([1]; first compound 0.03162 µM) | relative viability ([1]; first compound 0.1 µM) | relative viability ([1]; first compound 0.3162 µM) | relative viability ([1]; first compound 1 µM) | relative viability ([2]; first compound 0.01 µM) | relative viability ([2]; first compound 0.03162 µM) | relative viability ([2]; first compound 0.1 µM) | relative viability ([2]; first compound 0.3162 µM) | relative viability ([2]; first compound 1 µM) | relative viability ([3]; first compound 0.01 µM) | relative viability ([3]; first compound 0.03162 µM) | relative viability ([3]; first compound 0.1 µM) | relative viability ([3]; first compound 0.3162 µM) | relative viability ([3]; first compound 1 µM) | relative viability ([4]; first compound 0.01 µM) | relative viability ([4]; first compound 0.03162 µM) | relative viability ([4]; first compound 0.1 µM) | relative viability ([4]; first compound 0.3162 µM) | relative viability ([4]; first compound 1 µM)
LCLC-103H | 0.919 | 0.962 | 1.04 | 0.916 | 1.18 | 1.04 | 1.16 | 1.02 | 1.03 | 1.01 | 0.585 | 0.568 | 0.508 | 0.711 | 0.144 | 0.666 | 0.726 | 0.717 | 0.745 | 0.739
LCLC-97TM1 | – | 0.414 | 0.438 | 0.259 | 0.354 | – | 0.16 | 0.167 | 0.192 | 0.156 | 0.182 | 0.185 | 0.127 | 0.11 | 0.0962 | 0.935 | 0.973 | 0.85 | 0.881 | 0.948
NCI-H727 | 0.703 | 0.768 | 0.906 | 0.668 | 0.889 | 0.233 | 0.259 | 0.27 | 0.287 | 0.331 | 0.391 | 0.338 | 0.433 | 0.265 | 0.19 | 0.93 | 1.04 | 0.783 | 1.14 | 0.897
NCI-H1355 | 0.858 | 1.06 | 1.13 | 0.841 | 1.16 | 0.844 | 0.837 | 0.809 | 0.792 | 0.848 | 0.477 | 0.43 | 0.227 | 0.161 | 0.184 | 0.929 | 0.932 | 0.926 | 0.852 | 0.982
HOP-62 | 0.85 | 0.907 | 0.75 | 0.896 | 0.982 | 0.908 | 1.05 | 0.922 | 1.05 | 0.89 | 0.704 | 0.965 | 0.159 | 0.0849 | 0.127 | 1.06 | 1.27 | 0.993 | 1.15 | 1.08
NCI-H2085 | 0.864 | 0.962 | 1.03 | 0.778 | 1.01 | 0.914 | 0.997 | 0.934 | 0.87 | 0.923 | 0.395 | 0.504 | 0.371 | 0.183 | 0.224 | 0.792 | 0.923 | 0.902 | 0.781 | 1.15
